Measured values taken from article PMC8765048 (JCI Insight, 2022).

Experiments:
[1] = system: SARS-CoV-2 B.1.617.2 (Delta); assay: microbe, parasite or virus in culture; type: cell-based
SARS-CoV-2 P.2 (Zeta) = assay: microbe, parasite or virus in culture; type: cell-based
[2] = CellTiter-Glo cell viability assay; type: cell-based; conditions: human, Huh-7 cells; Huh-7, 72 h
Huh-7 cells = assay: Mitochondrial dye cell imaging (MTG, NAO); type: cell-based, human; conditions: 100 nM for 5 d, MTG and NAO
Text: Other important measures of cell viability are mitochondrial integrity, function, cardiotoxicity, and genotoxicity, since other nucleoside analogs may vary in their effect on these endpoints ([29], [30]). Dyes commonly used to assess mitochondrial integrity are MitoTracker Green (MTG), a mitochondrial stain mostly localized to mitochondria based on hydrophobicity, and N-alkyl acridine orange (NAO), which binds to mitochondrial cardiolipin. Untreated Huh-7 cells and Huh-7 cells treated for 5 days with 100 nM sangivamycin were stained with MTG and NAO and imaged by fluorescence microscopy. […] To more quantitatively assess the impact of sangivamycin on mitochondrial integrity, we evaluated the effect of sangivamycin on mitochondrial metabolic function as well as cytoplasmic glycolytic function. The XF96e Seahorse instrument was used to quantify the oxygen consumption rate (OCR) over time in untreated control and sangivamycin-treated Huh-7 cells. […] Standard metabolic endpoints quantified with or without sangivamycin included sequential treatment and washout of cell cultures with oligomycin (ATP synthase inhibitor), carbonyl cyanide 4-(trifluoromethoxy)phenylhydrazone (FCCP; a proton gradient uncoupler), and antimycin A + rotenone (complex I and III blockers) (Supplemental Figure 7).
Huh-7 cells were untreated or treated with 100 nM sangivamycin for 5 days. […]

KCNH2 (hERG) = biological target: T1, KCNH2 (hERG) (Homo sapiens, UniProt Q12809); assay: Potassium channel inhibition testing (QPatch HTX electrophysiology); type: cell-based
T1 construct: expressed in transfected cells; host or cells: HEK293T
T1 sequence (Q12809 whole entry): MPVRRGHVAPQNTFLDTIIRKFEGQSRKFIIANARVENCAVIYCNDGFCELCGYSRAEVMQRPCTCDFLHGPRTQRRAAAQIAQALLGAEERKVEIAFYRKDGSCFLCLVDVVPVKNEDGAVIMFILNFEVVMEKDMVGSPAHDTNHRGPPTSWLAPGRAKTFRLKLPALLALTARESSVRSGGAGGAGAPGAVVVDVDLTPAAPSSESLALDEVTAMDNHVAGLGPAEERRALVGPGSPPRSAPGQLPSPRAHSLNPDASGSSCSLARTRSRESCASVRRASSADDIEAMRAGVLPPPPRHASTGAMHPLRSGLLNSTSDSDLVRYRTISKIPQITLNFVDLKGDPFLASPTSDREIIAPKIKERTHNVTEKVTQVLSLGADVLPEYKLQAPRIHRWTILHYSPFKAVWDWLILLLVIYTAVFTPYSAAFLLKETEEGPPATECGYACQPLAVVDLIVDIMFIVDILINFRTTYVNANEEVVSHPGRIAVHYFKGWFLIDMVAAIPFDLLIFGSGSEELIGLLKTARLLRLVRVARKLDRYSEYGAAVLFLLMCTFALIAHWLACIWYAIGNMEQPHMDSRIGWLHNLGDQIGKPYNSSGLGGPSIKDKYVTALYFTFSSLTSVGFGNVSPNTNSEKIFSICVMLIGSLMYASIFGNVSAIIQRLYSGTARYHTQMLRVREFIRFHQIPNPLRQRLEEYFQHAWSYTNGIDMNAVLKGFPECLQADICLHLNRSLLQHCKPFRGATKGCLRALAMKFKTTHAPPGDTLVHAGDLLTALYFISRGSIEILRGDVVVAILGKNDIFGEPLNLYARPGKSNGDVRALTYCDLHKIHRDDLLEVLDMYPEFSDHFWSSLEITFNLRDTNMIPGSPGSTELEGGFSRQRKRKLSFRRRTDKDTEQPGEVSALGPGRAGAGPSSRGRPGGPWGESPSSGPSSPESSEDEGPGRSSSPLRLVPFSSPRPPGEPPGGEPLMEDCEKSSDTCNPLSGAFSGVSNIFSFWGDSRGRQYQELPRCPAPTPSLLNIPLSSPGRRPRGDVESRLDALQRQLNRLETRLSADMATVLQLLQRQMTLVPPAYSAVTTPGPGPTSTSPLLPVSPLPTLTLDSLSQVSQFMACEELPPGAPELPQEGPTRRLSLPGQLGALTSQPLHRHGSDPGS
Text: The KCNH2 (hERG) functions as the α subunit of a cardiac potassium channel. Its inhibition by drugs has been implicated in fatal ventricular tachyarrhythmia ([31]). As a predictor of cardiotoxicity and genotoxicity, we therefore evaluated KCNH2 (hERG) inhibition and genotoxicity in the AMES mutagenicity assay.
Ruling out inhibition of KCNH2 (hERG) by a novel compound is a mandatory step in establishing drug safety. The effect of sangivamycin on KCNH2-derived cardiac potassium channels was assessed using HEK293T cells and the QPatch HTX electrophysiology platform (Evotech), following the manufacturer’s instructions. Sangivamycin was tested at 6 concentrations (cumulative concentration response, high test concentration of 10 μM). The percentage change in potassium channel tail current was used to calculate channel inhibition.

Salmonella typhimurium = assay: AMES mutagenicity testing (Salmonella typhimurium reverse mutation assay); type: cell-based
Protocol: The standard AMES (Salmonella typhimurium reverse mutation assay, ref. [43]) was performed by Cyprotex to evaluate the mutagenic potentials of sangivamycin. Approximately 10 million bacteria were exposed in triplicate to sangivamycin (6 concentrations, 1 mg/mL high test concentration), a negative control (vehicle), and a positive control for 90 minutes in medium containing a low concentration of histidine (sufficient for about 2 doublings). The cultures were then diluted into indicator medium lacking histidine and dispensed into 48 wells of 384-well plates (microplate format). Plates were incubated for 48 hours at 37°C. In the microsuspension assay, cells that undergo a mutagenic reversion grow, resulting in a color change that is scored as positive wells. Wells with bacterial growth were counted and compared with those with vehicle control. A dose-dependent increase in the number of colonies of at least 2-fold over baseline (mean + SD of the vehicle control) indicated a positive response.

CYP1A2 = biological target: T2, CYP1A2 (Homo sapiens, UniProt P05177); assay: CYP inhibition testing, human liver microsomes; type: in vitro ADME
T2 construct: along with human liver microsomes (0.5 mg/mL) and cofactors; tissue Cyprotex (performed the assay); host or cells: human liver microsomes
T2 sequence (P05177 whole entry): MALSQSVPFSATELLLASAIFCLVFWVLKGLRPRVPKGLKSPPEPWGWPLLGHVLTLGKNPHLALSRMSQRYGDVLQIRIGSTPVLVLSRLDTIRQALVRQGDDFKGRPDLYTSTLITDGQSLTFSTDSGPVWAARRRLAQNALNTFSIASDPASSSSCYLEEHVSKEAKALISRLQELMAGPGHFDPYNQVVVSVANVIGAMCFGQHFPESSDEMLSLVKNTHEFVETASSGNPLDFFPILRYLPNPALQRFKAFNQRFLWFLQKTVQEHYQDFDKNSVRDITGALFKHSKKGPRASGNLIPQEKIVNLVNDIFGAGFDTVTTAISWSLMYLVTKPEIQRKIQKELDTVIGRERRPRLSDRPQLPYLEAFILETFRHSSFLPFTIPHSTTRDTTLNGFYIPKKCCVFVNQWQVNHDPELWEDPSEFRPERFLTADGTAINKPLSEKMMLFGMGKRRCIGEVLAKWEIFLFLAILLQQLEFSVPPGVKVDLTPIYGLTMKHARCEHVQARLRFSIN
Protocol: (§1) Sangivamycin was incubated by Cyprotex with a cocktail of model CYP substrates for CYP1A2, CYP2B6, CYP2C8, CYP2C9, CYP2C19, CYP2D6, CYP3A4, and CYP3A4, along with human liver microsomes (0.5 mg/mL) and cofactors (2.5 mM NADPH and 3.3 mM MgCl2), in 0.1 M phosphate buffer (pH 7.4) for 20 minutes at 37°C. Known CYP inhibitors were used in lieu of sangivamycin as positive controls: furafylin (1A2), thioTEPA (2B6), montelukast (2C8), sulfaphenazole (2C9), nootkatone (2C19), quinidine (2D6), and ketoconazole (3A4). Formation of substrate breakdown metabolites was measured by LC-MS/MS and compared with control incubation (incubation of substrates with microsomes and cofactors but in the absence of sangivamycin or in the presence of known inhibitors). CYP inhibition was measured as a decrease in the formation of expected metabolites in the presence of sangivamycin or control inhibitor (defined as a percentage of control).

CYP2B6 = biological target: T3, CYP2B6 (Homo sapiens, UniProt P20813); assay: CYP inhibition testing, human liver microsomes; type: in vitro ADME
T3 construct: along with human liver microsomes (0.5 mg/mL) and cofactors; tissue Cyprotex (performed the assay); host or cells: human liver microsomes
T3 sequence (P20813 whole entry): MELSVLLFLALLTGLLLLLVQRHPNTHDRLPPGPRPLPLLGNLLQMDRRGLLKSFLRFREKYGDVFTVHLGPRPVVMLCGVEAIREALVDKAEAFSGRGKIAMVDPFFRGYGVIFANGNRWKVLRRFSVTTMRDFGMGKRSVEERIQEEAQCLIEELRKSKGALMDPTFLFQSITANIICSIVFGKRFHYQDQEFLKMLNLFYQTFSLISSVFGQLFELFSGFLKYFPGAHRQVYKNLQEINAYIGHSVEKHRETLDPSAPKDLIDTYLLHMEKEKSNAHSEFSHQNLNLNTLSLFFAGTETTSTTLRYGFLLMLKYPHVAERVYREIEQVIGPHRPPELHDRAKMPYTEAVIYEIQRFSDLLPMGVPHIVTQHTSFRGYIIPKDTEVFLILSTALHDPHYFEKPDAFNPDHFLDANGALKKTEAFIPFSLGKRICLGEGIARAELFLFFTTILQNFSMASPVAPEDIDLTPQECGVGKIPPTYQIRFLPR
Protocol: as §1

CYP2C19 = biological target: T4, CYP2C19 (Homo sapiens, UniProt P33261); assay: CYP inhibition testing, human liver microsomes; type: in vitro ADME
T4 construct: along with human liver microsomes (0.5 mg/mL) and cofactors; tissue Cyprotex (performed the assay); host or cells: human liver microsomes
T4 sequence (P33261 whole entry): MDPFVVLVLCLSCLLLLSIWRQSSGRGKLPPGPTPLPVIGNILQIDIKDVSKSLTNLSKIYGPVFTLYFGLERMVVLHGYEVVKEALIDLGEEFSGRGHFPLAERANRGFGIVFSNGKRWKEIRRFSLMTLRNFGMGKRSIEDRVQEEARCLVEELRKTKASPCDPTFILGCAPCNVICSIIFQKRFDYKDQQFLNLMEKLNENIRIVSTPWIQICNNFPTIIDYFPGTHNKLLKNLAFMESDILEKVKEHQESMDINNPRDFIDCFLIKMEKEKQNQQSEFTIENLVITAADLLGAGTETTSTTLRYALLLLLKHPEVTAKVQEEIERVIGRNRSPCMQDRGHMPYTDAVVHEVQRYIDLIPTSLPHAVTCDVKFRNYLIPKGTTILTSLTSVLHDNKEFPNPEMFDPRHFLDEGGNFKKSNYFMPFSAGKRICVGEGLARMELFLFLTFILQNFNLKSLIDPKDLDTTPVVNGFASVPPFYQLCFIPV
Protocol: as §1

CYP2C8 = biological target: T5, CYP2C8 (Homo sapiens, UniProt P10632); assay: CYP inhibition testing, human liver microsomes; type: in vitro ADME
T5 construct: along with human liver microsomes (0.5 mg/mL) and cofactors; tissue Cyprotex (performed the assay); host or cells: human liver microsomes
T5 sequence (P10632 whole entry): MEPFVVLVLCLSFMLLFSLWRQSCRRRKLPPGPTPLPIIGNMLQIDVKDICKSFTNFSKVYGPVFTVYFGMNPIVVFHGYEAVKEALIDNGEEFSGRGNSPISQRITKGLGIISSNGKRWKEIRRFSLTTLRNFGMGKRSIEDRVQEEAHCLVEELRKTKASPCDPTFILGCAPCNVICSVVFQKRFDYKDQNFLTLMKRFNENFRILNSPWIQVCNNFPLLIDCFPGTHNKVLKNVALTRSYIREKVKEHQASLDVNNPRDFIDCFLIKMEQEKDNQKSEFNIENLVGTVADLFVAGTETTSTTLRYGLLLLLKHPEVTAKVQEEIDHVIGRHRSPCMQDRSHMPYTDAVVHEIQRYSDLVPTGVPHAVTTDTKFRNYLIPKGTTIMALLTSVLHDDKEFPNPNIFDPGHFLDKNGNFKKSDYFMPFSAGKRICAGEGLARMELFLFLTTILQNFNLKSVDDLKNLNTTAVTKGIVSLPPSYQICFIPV
Protocol: as §1

CYP2C9 = biological target: T6, CYP2C9 (Homo sapiens, UniProt P11712); assay: CYP inhibition testing, human liver microsomes; type: in vitro ADME
T6 construct: along with human liver microsomes (0.5 mg/mL) and cofactors; tissue Cyprotex (performed the assay); host or cells: human liver microsomes
T6 sequence (P11712 whole entry): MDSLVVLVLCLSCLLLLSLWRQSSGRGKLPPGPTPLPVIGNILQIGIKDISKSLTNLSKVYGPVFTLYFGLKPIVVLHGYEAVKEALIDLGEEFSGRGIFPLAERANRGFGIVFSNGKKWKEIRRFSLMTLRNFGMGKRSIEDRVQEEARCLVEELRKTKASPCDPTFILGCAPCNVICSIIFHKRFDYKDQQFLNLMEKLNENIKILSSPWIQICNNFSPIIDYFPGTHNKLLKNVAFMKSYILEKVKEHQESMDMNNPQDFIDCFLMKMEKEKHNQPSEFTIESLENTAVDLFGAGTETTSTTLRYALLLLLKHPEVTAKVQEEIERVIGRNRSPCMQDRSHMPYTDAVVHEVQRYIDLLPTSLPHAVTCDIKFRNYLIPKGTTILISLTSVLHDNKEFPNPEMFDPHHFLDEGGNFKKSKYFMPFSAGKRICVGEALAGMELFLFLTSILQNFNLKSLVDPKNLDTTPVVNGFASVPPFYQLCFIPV
Protocol: as §1

CYP2D6 = biological target: T7, CYP2D6 (Homo sapiens, UniProt P10635); assay: CYP inhibition testing, human liver microsomes; type: in vitro ADME
T7 construct: along with human liver microsomes (0.5 mg/mL) and cofactors; tissue Cyprotex (performed the assay); host or cells: human liver microsomes
T7 sequence (P10635 whole entry): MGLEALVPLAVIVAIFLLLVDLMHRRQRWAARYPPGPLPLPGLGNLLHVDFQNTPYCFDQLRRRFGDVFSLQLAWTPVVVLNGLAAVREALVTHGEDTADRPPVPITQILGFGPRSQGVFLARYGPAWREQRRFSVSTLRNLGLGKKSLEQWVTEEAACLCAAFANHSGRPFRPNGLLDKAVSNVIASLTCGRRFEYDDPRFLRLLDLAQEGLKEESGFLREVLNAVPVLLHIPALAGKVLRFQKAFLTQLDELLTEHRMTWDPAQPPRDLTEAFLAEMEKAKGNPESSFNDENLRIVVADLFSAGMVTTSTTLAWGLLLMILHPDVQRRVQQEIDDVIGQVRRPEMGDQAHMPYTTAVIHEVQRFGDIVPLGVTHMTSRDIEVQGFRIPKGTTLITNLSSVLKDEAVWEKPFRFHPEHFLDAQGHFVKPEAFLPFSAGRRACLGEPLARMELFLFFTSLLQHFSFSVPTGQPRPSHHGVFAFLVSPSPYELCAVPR
Protocol: as §1

CYP3A4 = biological target: T8, CYP3A4 (Homo sapiens, UniProt P08684); assay: CYP inhibition testing, human liver microsomes; type: in vitro ADME
T8 construct: along with human liver microsomes (0.5 mg/mL) and cofactors; tissue Cyprotex (performed the assay); host or cells: human liver microsomes
T8 sequence (P08684 whole entry): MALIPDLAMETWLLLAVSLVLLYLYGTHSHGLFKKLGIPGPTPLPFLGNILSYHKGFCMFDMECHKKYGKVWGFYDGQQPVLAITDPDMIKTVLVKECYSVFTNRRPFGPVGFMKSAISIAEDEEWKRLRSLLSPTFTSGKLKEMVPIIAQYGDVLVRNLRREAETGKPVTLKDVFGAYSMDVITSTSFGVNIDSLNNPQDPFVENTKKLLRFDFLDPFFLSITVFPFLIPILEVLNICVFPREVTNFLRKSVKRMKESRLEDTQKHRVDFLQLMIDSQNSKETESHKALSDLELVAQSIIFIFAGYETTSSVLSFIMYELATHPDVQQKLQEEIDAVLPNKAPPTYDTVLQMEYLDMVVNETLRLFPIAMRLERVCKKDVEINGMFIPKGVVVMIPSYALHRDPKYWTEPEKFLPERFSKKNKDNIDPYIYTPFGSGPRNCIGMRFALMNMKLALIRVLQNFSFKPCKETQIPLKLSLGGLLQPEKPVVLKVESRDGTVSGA
Protocol: as §1

[3] = system: HEK293T (human embryonic kidney); assay: CellTox Green Cytotoxicity Assay; conditions: ratio > 1 cytostatic, ≤ 1 cytotoxic
A549 cells = assay: Phospholipidosis imaging (NBD-PE fluorescence); conditions: 24 h, sangivamycin up to 5 μM, melperone 10 μM, amiodarone positive control
[4] = Severe acute respiratory syndrome coronavirus 2, Calu-3, 24 h

NC(=O)c1cn([C@@H]2O[C@H](CO)[C@@H](O)[C@H]2O)c2ncnc(N)c12 [Sangivamycin, sangivamycin]
SI (selectivity index, CC50/IC50) ([1]; B.1.617.2 (Delta), Calu-3 cells): >7.6
IC50 [1, 4]: 0.079 µM
IC90 [1, 4]: 0.29 µM
SI (selectivity index, CC50/IC50) (SARS-CoV-2 P.2 (Zeta); P.2 (Zeta), Calu-3 cells): >15.2
IC50 (SARS-CoV-2 P.2 (Zeta); [4]): 0.0396 µM
IC90 (SARS-CoV-2 P.2 (Zeta); [4]): 0.122 µM
CC50 at 72 h [2]: 0.487 µM
Effect on mitochondrial integrity (imaging with mitochondrial dyes) (Huh-7 cells): Negative
Effect on mitochondrial integrity (imaging with mitochondrial dyes) (Huh-7 cells; listed as sangivamycin): did not significantly affect mitochondrial structural integrity
IC50 (KCNH2 (hERG)): > 10 µM
effect on the KCNH2 (hERG) (KCNH2 (hERG); 10 μM): had no effect
AMES genotoxicity test (Salmonella typhimurium; 1 mg/mL [3.2 mM] high test concentration): >1 mg/mL
bacterial mutagenicity (Salmonella typhimurium; up to 3.2 mM): no evidence of enhanced bacterial mutagenicity
IC50 (CYP1A2): > 100 µM
IC50 (CYP2B6): > 100 µM
IC50 (CYP2C19): > 100 µM
IC50 (CYP2C8): > 100 µM
IC50 (CYP2C9): > 100 µM
IC50 (CYP2D6): > 100 µM
IC50 (CYP3A4): > 100 µM
Ratio CellTox Green/CellTiter-Glo [3]: >5.65
NBD-PE fluorescence (phospholipidosis) (A549 cells): no significant NBD-PE fluorescence above the DMSO control baseline
